# Patent publication US20070128217A1 (priority 2003, published 2007)
# Experiments:
# [1] = system: antibodies in sera from SARS patients (sera 1a, 1b, 2, 6, 37, 62, London, SARS-yellow, SARS-green); format: binding, human; design: Binding of serum 6 to linear peptides of protein X1 of SARS-CoV Urbani / Binding of serum 37 to linear peptides of protein X1 of SARS-CoV Urbani / Binding of serum 6 to looped/cyclic peptide (PEPSCAN-ELISA) / Binding of serum 37 to looped/cyclic peptide (PEPSCAN-ELISA) / Binding of serum 37 to looped/cyclic peptides of protein X1 of SARS-CoV Urbani / Binding of serum 6 to linear peptides of protein X2 / Binding of serum 37 to linear peptides of protein X2 / Binding of serum 37 to looped/cyclic peptides of protein X2 of SARS-CoV Urbani / Binding of serum 6 to linear peptides of protein M of SARS-CoV Urbani / Binding of serum 37 to linear peptides of protein M of SARS-CoV Urbani / Binding of serum 6 to looped/cyclic peptides of protein M of SARS-CoV Urbani / Binding of serum 37 to looped/cyclic peptides of protein M of SARS-CoV Urbani / Binding of serum 6 to linear peptides of protein X3 of SARS-CoV Urbani / Binding of serum 37 to linear peptides of protein X3 of SARS-CoV Urbani / Binding of serum 37 to looped/cyclic peptides of protein X3 of SARS-CoV Urbani / Binding of serum 6 to linear peptides of protein X4 of SARS-CoV Urbani / Binding of serum 37 to linear peptides of protein X4 of SARS-CoV Urbani / Binding of serum 37 to looped/cyclic peptides of protein X4 of SARS-CoV Urbani / Binding of serum 6 to linear peptides of protein X5 of SARS-CoV Urbani / Binding of serum 37 to linear peptides of protein X5 of SARS-CoV Urbani / Binding of serum 37 to looped/cyclic peptides of protein X5 of SARS-CoV Urbani / Binding of serum 6 to linear peptides of protein N of SARS-CoV Urbani / Binding of serum 37 to linear peptides of protein N of SARS-CoV Urbani / Binding of serum 6 to linear peptide (PEPSCAN-ELISA) / Binding of serum 1a to looped/cyclic peptides of protein N of SARS-CoV Urbani / Binding of serum 1b to looped/cyclic peptides of protein N of SARS-CoV Urbani / Binding of serum 2 to looped/cyclic peptides of protein N of SARS-CoV Urbani / Binding of serum 6 to looped/cyclic peptides of protein N of SARS-CoV Urbani / Binding of serum 37 to looped/cyclic peptides of protein N of SARS-CoV Urbani / Binding of serum 62 to looped/cyclic peptides of protein N of SARS-CoV Urbani / Binding of serum London to looped/cyclic peptides of protein N of SARS-CoV Urbani / Binding of serum SARS-green to looped/cyclic peptides of protein N of SARS-CoV Urbani: unit not given here
# [2] = system: control sera (pooled serum of ten healthy LUMC hospital workers; commercial negative donor pooled serum from the Dutch bloodbank); format: binding, human; design: Binding of Control serum LUMC to linear peptides / Binding of Control serum Blood-bank to linear peptides / Binding of Control serum LUMC to looped peptides / Binding of Control Serum Blood-Bank to Looped peptides / Binding of Control serum LUMC to linear peptides of the protein M of SARS-CoV Urbani / Binding of Control serum Blood-bank to linear peptides of the protein M of SARS-CoV Urbani / Binding of Control serum LUMC to looped peptides of the protein M of SARS-CoV Urbani / Binding of Control Serum Blood-Bank to Looped peptides of the protein M of SARS-CoV Urbani: unit not given here
# [3] = system: rabbit serum obtained by immunizing a rabbit with the SARS-CoV strain Frankfurt 1; format: binding; design: Binding of a rabbit serum to linear peptides / Binding of a rabbit serum to looped peptides / Rabbit serum linear peptides / Rabbit serum looped peptides / Binding of a rabbit serum to linear peptides of protein N of SARS-CoV Urbani (Rabbit serum linear peptides) / Binding of a rabbit serum to looped/cyclic peptides of protein N of SARS-CoV Urbani (Rabbit serum looped peptides): unit not given here
sequence,measurement,setting,value
IQQWIQFMMSRRRLL,Binding of serum 1a to linear peptides of protein X2,[1],0.6
same,Binding of serum 1a to looped/cyclic peptides of protein X2 of SARS-CoV Urbani,[1],0.4
same,Binding of serum 1b to linear peptides of protein X2,[1],0.5
same,Binding of serum 1b to looped/cyclic peptides of protein X2 of SARS-CoV Urbani,[1],0.4
same,Binding of serum 2 to linear peptides of protein X2,[1],0.4
same,Binding of serum 2 to looped/cyclic peptides of protein X2 of SARS-CoV Urbani,[1],0.5
same,Binding of serum 6 to linear peptides of protein X2,[1],0.6
same,Binding of serum 6 to looped/cyclic peptides of protein X2 of SARS-CoV Urbani,[1],0.4
same,Binding of serum 37 to linear peptides of protein X2,[1],0.6
same,Binding of serum 37 to looped/cyclic peptides of protein X2 of SARS-CoV Urbani,[1],0.5
same,Binding of serum 62 to linear peptides of protein X2,[1],0.5
same,Binding of serum 62 to looped/cyclic peptides of protein X2 of SARS-CoV Urbani,[1],0.7
same,Binding of serum London to linear peptides of protein X2,[1],0.4
same,Binding of serum London to looped/cyclic peptides of protein X2 of SARS-CoV Urbani,[1],0.2
same,Binding of serum SARS-green to linear peptides of protein X2,[1],0.3
same,Binding of serum SARS-green to looped/cyclic peptides of protein X2 of SARS-CoV Urbani,[1],0.4
same,Binding of serum SARS-yellow to linear peptides of protein X2,[1],0.8
same,Binding of serum SARS-yellow to looped/cyclic peptides of protein X2 of SARS-CoV Urbani,[1],0.5
same,Binding of Control Serum Blood-Bank to Looped peptides,[2],0.5
same,Binding of Control serum Blood-bank to linear peptides,[2],0.7
same,Binding of Control serum LUMC to linear peptides,[2],0.5
same,Binding of Control serum LUMC to looped peptides,[2],0.6
same,Binding of a rabbit serum to linear peptides,[3],0.4
same,Binding of a rabbit serum to looped peptides,[3],1.0
IRQEEVQQELYSPLF,Binding of serum 1a to linear peptides of protein X4 of SARS-CoV Urbani,[1],0.7
same,Binding of serum 1b to linear peptides of protein X4 of SARS-CoV Urbani,[1],0.6
same,Binding of serum 2 to linear peptides of protein X4 of SARS-CoV Urbani,[1],0.5
same,Binding of serum 6 to linear peptides of protein X4 of SARS-CoV Urbani,[1],0.5
same,Binding of serum 37 to linear peptides of protein X4 of SARS-CoV Urbani,[1],0.8
same,Binding of serum 62 to linear peptides of protein X4 of SARS-CoV Urbani,[1],0.8
same,Binding of serum London to linear peptides of protein X4 of SARS-CoV Urbani,[1],0.7
same,Binding of serum SARS-green to linear peptides of protein X4 of SARS-CoV Urbani,[1],0.8
same,Binding of serum SARS-yellow to linear peptides of protein X4 of SARS-CoV Urbani,[1],0.7
same,"Recognition of the peptide by sera of SARS-CoV infected individuals, and form (linear, looped/cyclic) in which it is recognized",[1],recognized in looped/cyclic form
same,Binding of Control Serum Blood-Bank to Looped peptides,[2],0.7
same,Binding of Control serum Blood-bank to linear peptides,[2],0.7
same,Binding of Control serum LUMC to linear peptides,[2],0.7
same,Binding of Control serum LUMC to looped peptides,[2],0.9
same,Rabbit serum linear peptides,[3],0.4
same,Rabbit serum looped peptides,[3],0.4
ITTDTGIENATFFIF,Binding of serum 1a to linear peptides of protein X1 of SARS-CoV Urbani,[1],0.8
same,Binding of serum 1a to looped/cyclic peptides of protein X1 of SARS-CoV Urbani,[1],0.7
same,Binding of serum 1b to linear peptides of protein X1 of SARS-CoV Urbani,[1],0.7
same,Binding of serum 1b to looped/cyclic peptides of protein X1 of SARS-CoV Urbani,[1],0.6
same,Binding of serum 2 to linear peptides of protein X1 of SARS-CoV Urbani,[1],0.6
same,Binding of serum 2 to looped/cyclic peptides of protein X1 of SARS-CoV Urbani,[1],0.6
same,Binding of serum 6 to linear peptides of protein X1 of SARS-CoV Urbani,[1],0.5
same,Binding of serum 6 to looped/cyclic peptides of protein X1 of SARS-CoV Urbani,[1],0.5
same,Binding of serum 37 to linear peptides of protein X1 of SARS-CoV Urbani,[1],0.6
same,Binding of serum 37 to looped/cyclic peptides of protein X1 of SARS-CoV Urbani,[1],0.9
same,Binding of serum 62 to linear peptides of protein X1 of SARS-CoV Urbani,[1],0.5
same,Binding of serum 62 to looped/cyclic peptides of protein X1 of SARS-CoV Urbani,[1],0.8
same,Binding of serum London to linear peptides of protein X1 of SARS-CoV Urbani,[1],0.3
same,Binding of serum London to looped/cyclic peptides of protein X1 of SARS-CoV Urbani,[1],0.3
same,Binding of serum SARS-green to linear peptides of protein X1 of SARS-CoV Urbani,[1],0.3
same,Binding of serum SARS-green to looped/cyclic peptides of protein X1 of SARS-CoV Urbani,[1],0.6
same,Binding of serum SARS-yellow to linear peptides of protein X1 of SARS-CoV Urbani,[1],0.5
same,Binding of serum SARS-yellow to looped/cyclic peptides of protein X1 of SARS-CoV Urbani,[1],0.7
same,Binding of Control Serum Blood-Bank to Looped peptides,[2],0.6
same,Binding of Control serum Blood-bank to linear peptides,[2],0.4
same,Binding of Control serum LUMC to linear peptides,[2],0.9
same,Binding of Control serum LUMC to looped peptides,[2],0.9
same,Binding of a rabbit serum to linear peptides,[3],0.1
same,Binding of a rabbit serum to looped peptides,[3],0.6
ITVATSRTLSYYKLG,Binding of serum 1a to linear peptides of protein M of SARS-CoV Urbani,[1],0.6
same,Binding of serum 1a to looped/cyclic peptides of protein M of SARS-CoV Urbani,[1],1.0
same,Binding of serum 1b to linear peptides of protein M of SARS-CoV Urbani,[1],0.4
same,Binding of serum 1b to looped/cyclic peptides of protein M of SARS-CoV Urbani,[1],0.6
same,Binding of serum 2 to linear peptides of protein M of SARS-CoV Urbani,[1],0.5
same,Binding of serum 2 to looped/cyclic peptides of protein M of SARS-CoV Urbani,[1],0.8
same,Binding of serum 6 to linear peptides of protein M of SARS-CoV Urbani,[1],0.5
same,Binding of serum 6 to looped/cyclic peptides of protein M of SARS-CoV Urbani,[1],1.1
same,Binding of serum 37 to linear peptides of protein M of SARS-CoV Urbani,[1],0.4
same,Binding of serum 37 to looped/cyclic peptides of protein M of SARS-CoV Urbani,[1],0.3
same,Binding of serum 62 to linear peptides of protein M of SARS-CoV Urbani,[1],0.4
same,Binding of serum 62 to looped/cyclic peptides of protein M of SARS-CoV Urbani,[1],0.6
same,Binding of serum London to linear peptides of protein M of SARS-CoV Urbani,[1],0.3
same,Binding of serum London to looped/cyclic peptides of protein M of SARS-CoV Urbani,[1],0.4
same,Binding of serum SARS-green to linear peptides of protein M of SARS-CoV Urbani,[1],0.5
same,Binding of serum SARS-green to looped/cyclic peptides of protein M of SARS-CoV Urbani,[1],0.4
same,Binding of serum SARS-yellow to linear peptides of protein M of SARS-CoV Urbani,[1],0.2
same,Binding of serum SARS-yellow to looped/cyclic peptides of protein M of SARS-CoV Urbani,[1],0.4
same,Binding of Control Serum Blood-Bank to Looped peptides of the protein M of SARS-CoV Urbani,[2],0.5
same,Binding of Control serum Blood-bank to linear peptides of the protein M of SARS-CoV Urbani,[2],0.8
same,Binding of Control serum LUMC to linear peptides of the protein M of SARS-CoV Urbani,[2],0.7
same,Binding of Control serum LUMC to looped peptides of the protein M of SARS-CoV Urbani,[2],0.6
same,Rabbit serum linear peptides,[3],0.2
same,Rabbit serum looped peptides,[3],0.4
